Reference: patent US7803559B1, “Protein aggregation regulators” (The Regents of the University of CA, priority 2003, dated 2010)
Where two headings read alike, the source gives them in different places.

How the values were obtained:
[1] = tested on: AR(122)-C17.2 cells; assay: Cell model of full length AR cytopathology (surviving neurons after 6 days of differentiation); format: cell-based, mouse; conditions: 50 μM
Description: (§1) Immortalized cell lines were created expressing full-length AR that differentiated in vitro into cells that resemble CNS neurons. C17.2 cells were used, developed by Evan Snyder, M. D., Ph.D. which are a transformed mouse neural precursor cell line that retain the ability to engraft and differentiate into CNS neurons and glia when implanted into fetal mouse brain (Snyder et al. 1192 Cell 68:33-51). In their undifferentiated form these cells may be propagated and easily transfected in vitro. However, upon serum starvation, addition of growth factor (NGF 100 ng/ml), and mitomycin (100 ng/ml) they differentiate into cells that have many features of CNS neurons, including axons, dendrites, and expression of neuron-specific markers.
(§2) C17.2 cell lines were created that stably expressed full-length HA-tagged forms of AR (25, 66, 103, or 122 glutamines). These AR(n)-C17.2 cell lines recapitulate several important aspects of SBMA, including proteolytic cleavage, and nuclear inclusion formation (data not shown). […] After six days of differentiation, AR(25)-C17.2 cells cultured with or without DHT readily formed neuron-like cells, expressing neural markers and extending long axonal processes. […]

[2] = tested on: Transgenic flies harboring htt exon 1 (Q93); assay: Drosophila model of htt exon 1 neurodegeneration (rhabdomeres per ommatidium); format: in vivo; conditions: 25 μM in food, seven days post-eclosion, p<0.0003 by ANOVA
Protocol: Transgenic flies were used, harboring a human huntingtin exon 1 fragment with 93 glutamines (htt exon 1 (Q93)) that is expressed in all fly neurons under the control of the elav:Gal4 driver.
Flies were treated by maintaining adults on food containing candidate compound (e.g., 25 μM Y-27632) or no drug supplement. The number of rhabdomeres in treated vs. untreated flies were analyzed seven days post-eclosion by the pseudopupil technique as described (Steffan et al., (2001). Nature 413, 739-743). Approximately 50-60 ommatidia were analyzed for rhabdomere content on each of 10-12 flies from each treatment group, and the average number of rhabdomeres per ommatidium in each individual was determined. Percent rhabdomere loss was calculated as 100×((7−average number remaining)/7) before and after treatment.
The therapeutic effect of Y-27632 in a Drosophila model of polyglutamine neurodegenerative disease was tested. Following eclosion, adult flies expressing the transgene were grown for seven days in the presence or absence of 25 μM Y-27632 in their food and rhabdomeres were counted at seven days. […] Thus, in addition to reducing polyglutamine aggregation in mammalian cells, Y-27632 is neuroprotective in this Drosophila model of polyglutamine protein toxicity.

[3] = tested on: ARN127(65)CFP/YFP; assay: FRET-based assay of polyglutamine (AR) aggregation, limited chemical screen and dose-response; format: cell-based, human
Protocol: For experiments in the fluorescence plate reader, high-throughput screening, and detergent fractionation, HEK293 cells in 6-well plates were transfected with a total of 2 μg of DNA using 10 μL Plus™ and 12 μL Lipofectamine™ according to manufacturer's protocol. To control for autofluorescence and light scattering by mammalian cells, a control group was transfected with 2 μg pcDNA3. To control for bleedthrough and crossover excitation, CFP and YFP controls were transfected with 1 μg pECFP-C1 (Clontech) and 1 μg pcDNA3 (Invitrogen) or 1 μg pEYFP-C1 (Clontech) and 1 μg pcDNA3 respectively. After 5 hours, cells were counted and plated into optically clear 96-well plates (Costar™ 3603) at a density of 60,000 cells/well. […] For assays of rho-GTPase mutants, 1 μg of each was used in conjunction with 1 μg of the polyglutamine expression plasmids. Transfections were performed in triplicate, and each experiment was repeated 6 times. C17-2 neural precursor cells were plated in 12-well plates and transfected using 4 μg of DNA and 4 μl of Lipofectamine 2000™. […] In C17-2 cells polyglutamine protein was visualized by direct fluorescence; neuron-specific tubulin was visualized by immunostaining with mouse monoclonal antibody Neuro TUJ1 (Covance) at 1:1000. […]

[4] = target: T1, htt(72)CFP/YFP (Homo sapiens, UniProt P42858, INS38QQQQQQQQQQQQQQQQQQQQQQQQQQQQQQQQQQQQQQQQQQQQQQQQQQQ); assay: FRET based assay of htt aggregation; format: cell-based
T1 construct: htt exon 1 fragment derived from plasmid qp72; expressed in transfected cells; host or cells: HEK293
Protocol: Aggregation of htt was monitored using the FPR FRET based HTS described herein for assaying aggregation of AR, using plasmids with htt exon 1-CFP and -YFP fusions containing 72 repeats (htt(72)CFP/YFP). HEK293 cells were transfected with htt(72)CFP/YFP as above, and cells were plated into a 96-well dish in the presence or absence of various concentrations of test compounds. After 24 hours, cells were fixed in 4% paraformaldehyde, and FRET signal was determined from the cell monolayers by reading on the FPR.

[5] = Pharmacokinetics in serum and brain of mice (LC-MS); format: in vivo, mouse; conditions: for half-life: mouse
Protocol: The pharmacokinetics of candidate compounds were assayed in serum and brain of mice. Wild-type C57B6 mice are injected with a single IP dose of a candidate compound, e.g., Y-27632 at 10 mg/kg. Pairs of animals are sacrificed at various time points and serum and brain samples were obtained for LC-MS analysis of drug levels. Plots of serum concentration vs. time and brain concentration vs. time are used to analyze, e.g., penetration of the blood/brain barrier, drug kinetics, and t1/2.
Wild-type C57B6 mice were treated with a single 10 mg/kg dose of Y-27632 by IP injection. Pairs of animals were sacrificed at various time points and serum and brain samples were obtained for LC-MS analysis of Y-27632 levels. […] The initial rapid fall in serum concentration is likely due to tissue re-distribution. […] Values represent the average from two mice; error bars represent the range.

[6] = tested on: full-length AR; assay: Western blot of full-length AR levels in stable C17.2 neural cell lines; format: cell-based; conditions: 50 μM, with or without 100 nM DHT, FIG. 6A
Description: as §1, §2

[7] = tested on: ARN127(65)CFP/YFP; assay: Secondary screen using the AR FRET assay; format: cell-based, human; conditions: secondary screen, AR FRET assay, Table 3
Protocol: Selected candidate compounds and/or libraries of compounds were screened as follows. Daughter plates were created in duplicate from the 384-well microtiter plates that contained the compounds at a concentration of 80 μg/ml. […] To screen a library, HEK293 cells stably expressing RFP were plated in 10 cm plates to obtain ˜80% confluency on the day of transfection. Each plate was transfected with 2 μg of ARN127(65)CFP/YFP each, and 0.7 μg p6RGRΔ using 50 μL Plus Reagent™ and 76 μL Lipofectamine™ according to manufacturer's protocol (Invitrogen). After 3 hours, complete medium was added and the plates were incubated further for 3 hours. […] The cells were then cultured for ˜48 hours to allow aggregate formation. After fixing the cells FRET signal was measured using a SAFIRE Fluorescence Plate Reader (Tecan, Inc.) according to methods described above. Several internal controls were used to standardize each experiment. Mock transfected cells were used to control for background autofluorescence and light scattering by mammalian cells. To control for CFP bleedthrough and crossover excitation of YFP, additional wells contained cells expressing ARN127(25)CFP or ARN127(25)YFP alone. RFP was measured to control for non-specific effects on steady-state protein levels. ARN127(25)CFP/YFP expression served as a reference point for background FRET levels without aggregation (a theoretical maximum effect on aggregation inhibition). FRET measurements for each experiment were thus scaled between 100% (cells with no drug treatment) and 0% (FRET levels from unexpanded protein).
Selected candidate compounds from the primary screen of all three libraries were assayed again in a secondary screen using the AR FRET assay.
Finally, the role of F-actin in preventing polyglutamine aggregation was investigated by treating cells with two agents that prevent actin depolymerization: phalloidin and jasplakinolide.

[8] = C57B6 mice, single 10 mg/kg dose IP

T1 sequence (P42858 with tags, fused parts or gaps, stated change not applied): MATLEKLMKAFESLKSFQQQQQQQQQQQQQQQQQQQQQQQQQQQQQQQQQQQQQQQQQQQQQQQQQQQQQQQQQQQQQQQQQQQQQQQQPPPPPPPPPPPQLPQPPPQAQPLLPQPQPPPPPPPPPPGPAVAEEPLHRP

EC50 ([3]; dose-response analysis, FRET, FIG. 3B, read-out: EC50 for the effect on polyglutamine aggregation) [µM] | aggregation of htt exon 1-CFP and -YFP fusions containing 72 repeats ([4]; FIG. 3A) | serum:brain ratio ([5]; C57B6, mouse, in vivo, ip, 10 mg/kg) | bioavailability [5, 8] | brain concentration, peak [5, 8] | serum concentration, spike [5, 8] | half-life ([5]; serum and brain, C57B6 mice, single 10 mg/kg dose IP, read-out: t1/2 of clearance from serum and brain (first-order kinetics)) [h] | half-life ([5]; serum, C57B6 mice, single 10 mg/kg dose IP, read-out: t1/2 of clearance from serum) [h] | Max % Inh. in Htt ([4]; HEK293, htt(72)CFP/YFP, 24 hours) [%] | SMILES | increase in number of surviving AR(122)-C17.2 neurons [1] [%] | effect on AR(25)-C17.2 cells ([1]; data not shown) | rhabdomere loss prevented [2] [%] | decrease of FRET (polyglutamine protein aggregation) ([3]; HEK293, ARN127(65)CFP/YFP and GRΔ, 100 nM dex, 48 hours) [%] | AR steady-state levels [6] | Max % Inhibition [7] [%]
~5 | inhibited aggregation | approximately 6:1 | excellent bioavailability | ≈ 500 nM | approximately 3.5 μM | ~1 | ~1 |  | C[C@@H](N)C1CCC(C(=O)Nc2ccncc2)CC1 (stereo partly drawn) [Compound Y-27632] | 100 | without affecting AR(25)-C17.2 cells | 29 | 40 | reduced the AR steady-state levels | 
 |  |  |  |  |  |  |  | 21 | COc1cc2ncnc(Nc3ccc(F)c(Cl)c3)c2cc1OC(C)=O [Compound 3, Acetic acid 4-(3-chloro-4-fluoro-phenylamino)-7-methoxy-quinazolin-6-yl ester] |  |  |  |  |  | 30
